Assays:
AMF spores = assay: Arbuscular mycorrhizal fungi (AMF) spore germination experiment; assay type: cell-based; details: 10^−8M in M-medium, 26.5° C. dark, average of 3 replicates
Procedure: Test is performed under lab conditions. The active ingredient was solved in a solvent (acetone) and added to warm culture medium (M-medium; Bécard et Fortin, 1988) to obtain a final concentration of 10^−8M. After filling the culture medium in 24-well plates, AMF spores were deposited on the surface of culture medium. Plates were incubated at 26.5° C. in the dark. Assessment consisted of counting of germinated spores 3 and 4 days after application (daa).

[1] = tested on: Glomus intraradices / Medicago truncatula plantlets; assay: In vitro phosphate (33P) transport to host plant by mycorrhizal fungi; assay type: in vivo; details: 96 hours after addition of 33P, average of 4 replicates
Procedure: One-week-old Medicago truncatula plantlets were transferred in the AM-P in vitro culture systems (details on AM-P systems see: H. Dupré Boulois et al., 2006). The roots were placed in the root compartment (RC) on the surface of the solid MSR medium (Declerck et al., 2003) lacking vitamins and sucrose. The RC was filled with 25 ml and the hyphal compartment (HC) with 20 ml of solid MSR medium, lacking sucrose, vitamins and solidified with 3 g l^−1 Phytagel.
Roots of M. truncatula plantlets were subsequently inoculated with the spores (±100) of Glomus intraradices. The bi-compartmented Petri plates of the AM-P in vitro culture systems were then sealed using Parafilm (Pechiney, Menasha, Wis., USA) and wrapped in black plastic bags to maintain roots and the G. intraradices in the dark. The AM-P in vitro culture systems were subsequently incubated in a controlled environment chamber (20° C., 16 h photoperiod). The AMP in vitro culture systems were supplied weekly with 5 ml of MSR medium up to 2 weeks before radio-isotopic labelling (10 weeks after inoculation).
Three weeks after inoculation, AM fungal mycelium started to contact the roots and to develop in the entire volume of the RCs. Between week 5 and 7, the mycelium crossed the partition wall between the RCs and HCs and started to develop in the HCs. The roots that crossed the plastic barrier were trimmed to leave the HC void of roots. Eight weeks after inoculation, the medium contained in the HCs was removed and then replaced by fresh MSR medium, lacking sucrose, vitamins and solidified with 3 g l^−1 Phytagel. In this medium, the active ingredient at the desired concentrations (in 0.1% acetone) was also added. The mycelium started immediately to re-grow into the fresh medium containing the active ingredient. At time of labeling, the mycelium in the HCs was 2 weeks-old.
Ten weeks after beginning of the experiment (i.e. 2 weeks after initiation of hyphal development in the HCs containing the active ingredient), filter-sterilized (Acrodisc® Syringe Filters, PALL Corporation, Ann Arbor, Mich., USA) phosphorus (^33P) was added in the HCs (489520+/−12080 CPM per systems). The source of ^33P was orthophosphate in dilute hydrochloric acid (<0.1 M) supplied by Amersham Pharmacia Biotech (Buckinghamshire, UK). A control treatment was included. Four replicates were considered per treatment.
At the end of the experiment (i.e. 96 hours after the addition of ^33P), the shoots of M. truncatula were collected by cutting the shoots at the level of the solidified MSR medium contained in the RCs. The roots were then removed from the solidified MSR medium and cleaned-free from the remaining gel and extraradical mycelium. Root and shoots were oven dried (60° until constant weight) and weighted. […]

Soybean seeds = assay: Germination test on soybean seeds; assay type: in vivo; details: agar plates, 7.5° C. dark, 5 replicates of 20 seeds
Procedure: (§1) The test is performed under lab conditions. Soybean and maize seeds, treated with the active ingredient solved in DMSO and diluted with water to the desired dosages, are placed on sterile agar plates (0.5% agar in water). Covered plates are incubated at 7.5° C. and 10° C. respectively in the dark. Wheat seeds, treated with the active ingredient, solved in DMSO and diluted with water to the desired dosages, are placed on sterile agar plates (1% agar in water). Covered plates are incubated at 7.5° C. in the dark. Controls are performed in the same conditions in the absence of the active ingredient. Assessment consisted of counting germinated seeds per plate at different time points.

Maize seeds = assay: Germination test on maize seeds; assay type: in vivo; details: agar plates, 10° C. dark, 5 replicates of 20 seeds
Procedure: as §1

Wheat seeds = assay: Germination test on wheat seeds; assay type: in vivo; details: agar plates, 7.5° C. dark, 5 replicates of 20 seeds
Procedure: as §1

[2] = tested on: maize roots inoculated with arbuscular mycorrhizal fungi; assay: Greenhouse experiment on maize under low phosphate conditions (mycorrhization of roots); assay type: in vivo; details: maize seed treatment 0.1 mg/ha, AMF inoculum, low phosphate (20 μM), 6 weeks greenhouse, trypan blue staining
Procedure: Test is performed in the greenhouse. 5 maize seeds per treatment were sown in 500 ml rose pots (7×7×18 cm) containing a mix of sand and perlite (1:1). 3 replicates were made. The active ingredient was solved in a DMSO and seed treatment was performed with lab equipment. To inoculate with arbuscular mycorrhizal fungi, 8 ml inoculum (AMykor GmbH; Germany) were mixed with 1 l of the sand-perlite mixture. Seeds were covered by 3 cm of LECA (light expanded clay aggregate). Pots were incubated in the greenhouse for 6 weeks at 21.5° C./14° C. (day/night) and 80% relative humidity. Once a week plants were watered with nutrient solution (half concentrated Hoagland solution (Hoagland and Arnon, 1950)) containing only a low concentration of phosphate (20 μM). Assessment consisted of mycorrhization of roots. Mycorrhization was evaluated after trypan blue staining by microscopy. Controls are performed in the same conditions in the absence of the active ingredient.

Maize plants = assay: Greenhouse experiment on maize (SPAD chlorophyll reading); assay type: in vivo; details: seeds soaked, 0.1 mg/ha, 45 days after seeding, average of 4 replicates
Procedure: Test is performed under greenhouse conditions. Plants were grown in pots on a growth bench in the greenhouse at constant air temperature of 25° C. (day) and 20° C. (night) and 65% relative humidity. Plants were regularly watered with ½ strength Hoagland's solution containing nitrogen (Hoagland and Arnon, 1950) as needed. Maize seeds were carefully surface sterilized in 2% sodium hypochlorite for 3 min. followed by several rinsing with sterile distilled water (Bhuvaneswari et al. 1980). Seeds were directly sown in pots ([…]) containing a mixture of sand and turface (2:1, v/v) (2.5 L in each pot. Five seeds were put in each pot. The seeds were covered gently with the potting mixture and kept on the growth bench. After counting emergence, seedlings were thinned to one seedling per pot. Before sowing, seeds were soaked in solution containing the active ingredient at the desired concentration for at least two hours. The plants were allowed to grow for 45 days after seeding and were then harvested for final data collection. Data were collected on the SPAD meter readings (leaf greenness measurements (chlorophyll content); SPAD-502 Chlorophyll Meter (Konica Minolta Sensing Inc., Japan)

Soybean plants = assay: Greenhouse experiment on soybean inoculated with Bradyrhizobium japonicum; assay type: in vivo
Procedure: Test is performed under greenhouse conditions. The experiment was conducted at a constant air temperature of 25° C. (day) and 20° C. (night) and 65% relative humidity. Plants were regularly watered with ½ strength Nitrogen free Hoagland's solution (Hoagland and Arnon, 1950) as needed.
Initial culture of Bradyrhizobium japonicum was prepared by inoculating single cell colonies from petri plates in 200 mL Yeast Extract Mannithol (YEM) broth (pH 6.8) and incubated at 28° C. and shaken at 150 rpm until an OD600 of 0.2-0.3 is achieved (2-3 days). Absorbance (A600 nm) of the bacterial cultures was determined using a spectrophotometer. The culture was diluted to an OD600 of 0.08 and 1 mL of this culture was used for inoculation onto seeds of all treatments.
Soybean seeds were surface sterilized in 2% sodium hypochlorite for 3 min and then rinsed several times with distilled water (Bhuvaneswari et al. 1980). Seeds were directly sown in pots (130 mm diameter) containing a mixture of sand and turface (2:1, v/v). Five soybean seeds were put in each. Before sowing seeds were soaked in solution containing the active ingredient at the desired concentration for at least two hours. Bradyrhizobium japonicum inoculant prepared as described above was inoculated onto soybean seeds by pipetting 1 mL of diluted culture onto each seed. The seeds were covered gently with the potting mixture, kept on the growth bench. After monitoring emergence, seedlings were thinned to one seedling per pot.
The plants were allowed to grow for 45 days after seeding and were then harvested for final data collection. Data were collected on the following variables: • 1. SPAD meter readings (leaf greenness measurements (chlorophyll content); SPAD-502 Chlorophyll Meter (Konica Minolta Sensing Inc., Japan) • 2. Number of nodules per plant • 3. Nodule dry weight

Spring wheat = Spring wheat field trial (2010); assay type: in vivo; details: seed treatment of spring wheat, result in words
Procedure: Maize and wheat field trials were conducted in order to evaluate several assessments including the weight of plant (leaf+roots), the formation of mycorrhiza, and yield parameters like the weight of grains per plot in tons per ha and the 1000 kernel weight. In addition to the tested compounds, a basic treatment of fungicides was also applied on the seeds. The tested active ingredients were pre-diluted in DMSO and applied on seeds in tank mix with fungicides. Spring wheat: Germany (Monheim), soil description: sandy loam, phosphor 11 mg/100 g soil, potassium 14 mg/100 g soil, magnesium 8 mg/100 g soil, organic matter 1.2%, pH 6.4. Sowing date: 2010-04-01 In both crops no phosphate or potassium fertilizer were applied. Compound A1: 0.1 and 1 milligrams active ingredient per hectare Base: Fungicide: Fluoxastrobin+Prothioconazole+Tebuconazole FS 80/Dosage: 5.6+5.6+0.747 grams active ingredient per 100 kg seeds. The following yield parameters were assessed: tons per hectare (for wheat only), TKW=1000 kernel weight. Mycorrhization of roots of spring wheat plants was assessed by trypan blue staining followed by microscopy.

Arabidopsis root = details: literature report (Planta, 2008); cited from earlier work
[3] = soybean, seeds soaked, 0.1 mg/ha, 45 days after seeding, average of 4 replicates

| SMILES | Germination rate 3 daa (AMF spores; 3 days after application) [%] | Germination rate 4 daa (AMF spores; 4 days after application) [%] | ^33P counting root ([1]; 10^−6 M in hyphal compartment) | ^33P counting shoot ([1]; 10^−6 M in hyphal compartment) | ^33P counting root ([1]; 10^−7 M in hyphal compartment) | ^33P counting shoot ([1]; 10^−7 M in hyphal compartment) | Soybean Germination rate 7 daa (Soybean seeds; seed treatment 0.1 mg/ha) [%] | Soybean Germination rate 7 daa (Soybean seeds; seed treatment 1 mg/ha) [%] | Maize Germination rate 6 daa (Maize seeds; seed treatment 0.1 mg/ha) [%] | Maize Germination rate 6 daa (Maize seeds; seed treatment 1 mg/ha) [%] | Wheat Germination rate 3 daa (Wheat seeds; seed treatment 0.1 mg/ha) [%] | Wheat Germination rate 3 daa (Wheat seeds; seed treatment 1 mg/ha) [%] | Mycorrhization [2] [%] | SPAD (Maize plants) | biomass (root and shoot) (Soybean plants; soybean seeds treated, greenhouse, comparatively to the control, figures not given) | Nodule weight (dry) (Soybean plants; [3]) [g] | Number of nodules (Soybean plants; [3]) | SPAD (Soybean plants; [3]) | yield (Spring wheat) | Arabidopsis root length (Arabidopsis root) |
| --- | --- | --- | --- | --- | --- | --- | --- | --- | --- | --- | --- | --- | --- | --- | --- | --- | --- | --- | --- | --- |
| CCCCCC(=O)CC(=O)NC1CCOC1=O (centres unmarked) [Compound A1] | 58 | 78 | 121485.7 | 61277.6 | 111374.4 | 70473.9 | 77 | 84 | 95 | 94 | 52 | 69 | 4.3 | 42 | increase of biomass (root and shoot) | 0.180 | 84 | 34 | significative yield increase | – |
| CCCCCC(=O)NC1CCOC1=O (centres unmarked) [N-hexanoyl-d1-homoserine-lactone] | – | – | – | – | – | – | – | – | – | – | – | – | – | – | – | – | – | – | – | small increase |
